ChEMBL document CHEMBL5665443, “Enzyme Inhibitor Single Concentration assay results for EUbOPEN Chemogenomics Library” (2024)

Key:
[1] = target: T1, Endonuclease III-like protein 1 (Homo sapiens) (UniProt P78549); settings: Hit No;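 note: enzyme assay tracking NTHL1 cutting and release of a quenched double-stranded DNA oligo substrate, read as fluorescence at 594 nm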
T1 sequence (whole entry): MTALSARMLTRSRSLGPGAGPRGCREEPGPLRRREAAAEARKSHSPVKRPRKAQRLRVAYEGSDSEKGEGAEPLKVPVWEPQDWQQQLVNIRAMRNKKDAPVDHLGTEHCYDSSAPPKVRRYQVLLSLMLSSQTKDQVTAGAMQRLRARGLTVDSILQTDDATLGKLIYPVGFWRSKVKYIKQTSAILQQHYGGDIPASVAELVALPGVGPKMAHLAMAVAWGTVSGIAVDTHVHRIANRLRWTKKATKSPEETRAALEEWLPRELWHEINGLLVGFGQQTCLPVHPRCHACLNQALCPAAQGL
Description: Inhibition of NTHL1 by quantifying inhibition of NTHL1-mediated cleavage and dissociation of quenched duplex DNA oligonucleotides, measured as fluorescence at 594 nm.

[2] = target: T2, Endonuclease 8-like 2 (Homo sapiens) (UniProt Q969S2); settings: Hit No;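 note: fluorescence at 594 nm reports NEIL2 cutting and release of a quenched double-stranded DNA oligo substrate, reduced signal read as inhibition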
T2 sequence (whole entry): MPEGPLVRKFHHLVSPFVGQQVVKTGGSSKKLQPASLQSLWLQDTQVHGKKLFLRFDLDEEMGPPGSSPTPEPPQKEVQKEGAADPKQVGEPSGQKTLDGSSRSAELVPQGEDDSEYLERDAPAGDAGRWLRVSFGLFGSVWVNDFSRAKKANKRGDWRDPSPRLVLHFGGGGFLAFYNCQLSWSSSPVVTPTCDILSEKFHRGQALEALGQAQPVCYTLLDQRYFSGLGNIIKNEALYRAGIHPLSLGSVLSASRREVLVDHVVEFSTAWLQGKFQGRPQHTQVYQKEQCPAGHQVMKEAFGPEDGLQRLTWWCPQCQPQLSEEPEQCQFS
Description: Inhibition of NEIL2 by quantifying inhibition of NEIL2-mediated cleavage and dissociation of quenched duplex DNA oligonucleotides, measured as fluorescence at 594 nm.

[3] = target: G/T mismatch-specific thymine DNA glycosylase (Homo sapiens) (UniProt Q13569); settings: Hit No;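 note: human TDG cleavage of quenched duplex DNA oligonucleotides coupled to APE1, strand release read as fluorescence at 594 nm, inhibition of TDG activity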
Description: Inhibition of TDG by quantifying inhibition of TDG-mediated cleavage and dissociation of quenched duplex DNA oligonucleotides, measured as fluorescence at 594 nm. To generate a functional strand incision and increase turn-over this assay is coupled to APE1.

[4] = target: T3, Single-strand selective monofunctional uracil DNA glycosylase (Homo sapiens) (UniProt Q53HV7); settings: Hit No;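 note: enzymatic SMUG1 assay coupled with APE1, reading fluorescence at 594 nm released when a quenched double-stranded DNA oligonucleotide substrate is cleaved and separated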
T3 sequence (whole entry): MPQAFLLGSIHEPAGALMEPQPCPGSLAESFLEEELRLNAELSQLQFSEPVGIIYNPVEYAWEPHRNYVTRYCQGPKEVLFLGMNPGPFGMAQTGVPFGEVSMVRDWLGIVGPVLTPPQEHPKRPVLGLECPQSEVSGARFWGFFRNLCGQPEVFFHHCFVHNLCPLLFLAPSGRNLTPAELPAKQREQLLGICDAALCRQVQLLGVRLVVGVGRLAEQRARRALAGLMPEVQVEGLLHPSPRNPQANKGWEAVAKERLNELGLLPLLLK
Description: Inhibition of SMUG1 by quantifying inhibition of SMUG1-mediated cleavage and dissociation of quenched duplex DNA oligonucleotides, measured as fluorescence at 594 nm. To generate a functional strand incision and increase turn-over this assay is coupled to APE1.

[5] = target: Endonuclease 8-like 1 (Homo sapiens) (UniProt Q96FI4); settings: Hit No;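 note: fluorescence at 594 nm from quenched duplex DNA oligonucleotides released by NEIL1 cleavage and strand separation, reported as reduction of this enzyme activity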
Description: Inhibition of NEIL1 by quantifying inhibition of NEIL1-mediated cleavage and dissociation of quenched duplex DNA oligonucleotides, measured as fluorescence at 594 nm.

[6] = target: N-glycosylase/DNA lyase (Homo sapiens) (UniProt O15527); settings: Compound Concentration 10.0 uM, Hit No;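 note: OGG1 cleavage of a quenched duplex DNA oligonucleotide, coupled to APE1 for strand incision, read as fluorescence at 594 nm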
Description: Inhibition of OGG1 by quantifying inhibition of OGG1-mediated cleavage and dissociation of quenched duplex DNA oligonucleotides, measured as fluorescence at 594 nm. To generate a functional strand incision and increase turn-over this assay is coupled to APE1.

[7] = target: Uracil-DNA glycosylase (Homo sapiens) (UniProt P13051); settings: Hit No;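 note: UNG excision on a quenched double-stranded DNA oligo probe, with APE1 added for strand incision and turnover, read as fluorescence at 594 nm as strands separate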
Chain of Uracil-DNA glycosylase (Homo sapiens) (P13051 whole entry): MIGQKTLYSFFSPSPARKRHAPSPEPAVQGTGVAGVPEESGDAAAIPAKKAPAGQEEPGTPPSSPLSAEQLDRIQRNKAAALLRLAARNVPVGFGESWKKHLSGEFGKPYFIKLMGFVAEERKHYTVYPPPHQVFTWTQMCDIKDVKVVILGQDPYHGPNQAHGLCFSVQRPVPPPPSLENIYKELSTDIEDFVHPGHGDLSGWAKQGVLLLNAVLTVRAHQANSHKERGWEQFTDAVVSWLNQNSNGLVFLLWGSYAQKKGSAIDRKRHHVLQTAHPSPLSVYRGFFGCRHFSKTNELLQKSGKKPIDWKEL
Description: Inhibition of UNG by quantifying inhibition of UNG-mediated cleavage and dissociation of quenched duplex DNA oligonucleotides, measured as fluorescence at 594 nm. To generate a functional strand incision and increase turn-over this assay is coupled to APE1.

Chain of N-glycosylase/DNA lyase (Homo sapiens) (O15527 whole entry): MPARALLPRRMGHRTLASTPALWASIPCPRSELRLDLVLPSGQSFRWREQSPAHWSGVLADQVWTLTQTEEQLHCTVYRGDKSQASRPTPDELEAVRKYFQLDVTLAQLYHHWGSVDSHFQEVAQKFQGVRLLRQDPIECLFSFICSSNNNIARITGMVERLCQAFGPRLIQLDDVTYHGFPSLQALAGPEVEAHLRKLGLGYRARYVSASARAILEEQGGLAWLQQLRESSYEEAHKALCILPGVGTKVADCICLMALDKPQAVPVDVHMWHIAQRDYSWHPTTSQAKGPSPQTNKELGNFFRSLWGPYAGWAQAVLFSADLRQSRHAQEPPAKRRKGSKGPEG
Chain of G/T mismatch-specific thymine DNA glycosylase (Homo sapiens) (Q13569 whole entry): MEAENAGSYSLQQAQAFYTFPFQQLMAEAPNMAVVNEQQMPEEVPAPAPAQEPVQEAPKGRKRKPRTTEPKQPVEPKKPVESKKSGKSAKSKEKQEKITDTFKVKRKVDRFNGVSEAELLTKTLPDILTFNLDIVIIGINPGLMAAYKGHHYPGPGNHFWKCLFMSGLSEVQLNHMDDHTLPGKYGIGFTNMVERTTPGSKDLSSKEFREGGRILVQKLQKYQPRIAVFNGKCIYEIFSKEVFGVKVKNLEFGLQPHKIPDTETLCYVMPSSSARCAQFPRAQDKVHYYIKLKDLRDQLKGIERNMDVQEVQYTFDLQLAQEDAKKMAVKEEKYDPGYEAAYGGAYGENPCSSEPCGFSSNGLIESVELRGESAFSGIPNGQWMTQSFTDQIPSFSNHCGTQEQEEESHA
Chain of Endonuclease 8-like 1 (Homo sapiens) (Q96FI4 whole entry): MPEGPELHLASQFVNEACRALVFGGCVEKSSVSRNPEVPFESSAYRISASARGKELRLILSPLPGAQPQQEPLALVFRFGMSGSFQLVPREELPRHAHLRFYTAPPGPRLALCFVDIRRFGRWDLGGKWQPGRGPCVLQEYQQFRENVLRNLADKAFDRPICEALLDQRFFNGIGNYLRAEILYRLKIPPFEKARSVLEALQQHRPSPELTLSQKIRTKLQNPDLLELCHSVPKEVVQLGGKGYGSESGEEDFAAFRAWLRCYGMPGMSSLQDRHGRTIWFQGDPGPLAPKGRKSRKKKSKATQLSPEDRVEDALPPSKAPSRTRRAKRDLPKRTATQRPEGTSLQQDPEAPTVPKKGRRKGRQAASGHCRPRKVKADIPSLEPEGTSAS

SMILES	inhibition ([1]; Compound Concentration 10.0 uM) [%]	inhibition ([2]; Compound Concentration 10.0 uM) [%]	inhibition ([3]; Compound Concentration 10.0 uM) [%]	inhibition ([4]; Compound Concentration 10.0 uM) [%]	inhibition ([5]; Compound Concentration 10.0 uM) [%]	inhibition [6] [%]	inhibition ([7]; Compound Concentration 10.0 uM) [%]	inhibition ([1]; Compound Concentration 1.0 uM) [%]	inhibition ([7]; Compound Concentration 1.0 uM) [%]	inhibition ([2]; Compound Concentration 1.0 uM) [%]	inhibition ([3]; Compound Concentration 1.0 uM) [%]	inhibition ([4]; Compound Concentration 1.0 uM) [%]	inhibition ([5]; Compound Concentration 1.0 uM) [%]
CCN1CCC[C@H]1CNC(=O)c1c(OC)ccc(Br)c1OC	-4.67	-5.97	-0.58	-6.28	-9.25	-3.96	–	–	–	–	–	–	–
Cc1nc2ccc(Oc3ccc(F)cc3)cc2c(=O)n1C[C@H]1CCCN(C(C)C)C1	-3.56	–	-8.54	-4.48	6.38	–	-4.71	–	–	–	–	–	–
NCCCNCCCCNCCC(=O)NCCCCCNC(=O)[C@H](CC(N)=O)NC(=O)Cc1ccc(O)cc1O	-0.258	-3.66	–	-7.3	0.898	0.0747	-1.11	–	–	–	–	–	–
COc1cc(C)c(Sc2cnc(NC(=O)c3ccc(CNC(C)C(C)(C)C)cc3)s2)cc1C(=O)N1CCN(C(C)=O)CC1 (stereo unspecified)	-3.4	–	37.6	19.5	-0.787	–	4.76	–	–	–	–	–	–
CC[N+](CC)(CC)CCOc1ccc(/C=C/c2ccccc2)cc1	0.568	0.669	–	8.74	3.86	–	1.13	–	–	–	–	–	–
Cc1c(C(=O)Nc2ccc(N3C[C@@H](C)O[C@@H](C)C3)nc2)cccc1-c1ccc(OC(F)(F)F)cc1	-3.21	7.5	-4.8	-0.0333	-5.39	-6.4	–	–	–	–	–	–	–
Cc1c(C(=O)Nc2cccc(C(F)(F)F)c2)cc(-c2ccccc2)n1CCCN1CCOCC1	-7.69	–	–	6.03	0.00926	-6.32	-3.84	–	–	–	–	–	–
c1cc(CN2CCCNCCNCCCNCC2)ccc1CN1CCCNCCNCCCNCC1	13.7	–	2.03	1.47	–	-2.11	–	–	–	–	–	–	–
CN1CCN(c2nc(N)c3ccccc3n2)CC1	17.1	16	-3.58	–	6.68	-6.52	-6.76	–	–	–	–	–	–
Cc1csc(NC(=O)c2cc(F)cc(Oc3cncnc3)c2)n1	4.86	3.51	5.04	3.26	-4.5	-8.23	–	–	–	–	–	–	–
O=C1COc2nccc(-c3ccccc3F)c2CN1Cc1cc(C(F)(F)F)cc(C(F)(F)F)c1	2.66	-2.98	–	-3.96	2.76	-4.66	–	–	–	–	–	–	–
Cc1c(-c2cc(-c3ccccc3Cl)no2)cnn1C1CCNCC1	12.9	-0.35	-8.91	-1.2	5.79	–	-3.3	–	–	–	–	–	–
CCCn1c(=O)c2[nH]c(C3CCCC3)nc2n(CCC)c1=O	-3.21	1.01	6.69	-9.38	-2.28	-9.82	–	–	–	–	–	–	–
CCN1CCN(c2ccc(Nc3cc(N(C)C(=O)Nc4c(Cl)c(OC)cc(OC)c4Cl)ncn3)cc2)CC1	–	–	–	–	–	–	–	1.48	1.97	-7.84	47.5	20.5	-0.787
CC(C)CCC[C@@H](C)[C@H]1CC[C@H]2[C@@H]3[C@H](O)C=C4C[C@@H](O)CC[C@]4(C)[C@H]3CC[C@]12C	-1.74	-6.22	-0.558	-3.67	8.25	-2.82	–	–	–	–	–	–	–
CC(C)Oc1ccc(-c2nn([C@@H](C)c3oc4ccc(F)cc4c(=O)c3-c3cccc(F)c3)c3ncnc(N)c23)cc1F	8.46	–	80.6	23.6	-4.09	8.77	6.08	–	–	–	–	–	–
CC[C@@H]1CN(C(=O)NCC(F)(F)F)C[C@@H]1c1cnc2cnc3[nH]ccc3n12	2.88	–	36.4	20.8	4.1	0.361	1.27	–	–	–	–	–	–
COCC(=O)NC/C=C/c1ccc2ncnc(Nc3ccc(Oc4ccc(C)nc4)c(C)c3)c2c1	1.48	–	11.2	21.7	-8.05	5.64	9.27	–	–	–	–	–	–
